Like-named read-outs stand apart in the source and are kept apart here.
Key:
Assay type in all cases: cell-based
P. aeruginosa [1] = assay: Antibacterial surveillance of clinical isolates (MIC50/90); details: Pseudomonas aeruginosa, 103 isolates
Procedure: (§1) Minimum inhibitory concentrations for representative example compounds herein were determined by a broth microdilution method in accordance with the Clinical and Laboratory Standards Institute (CLSI) guidelines. In brief, organism suspensions were adjusted to a 0.5 McFarland standard to yield a final inoculum between 3×10^5 and 7×10^5 colony-forming units (CFU)/mL. The inoculum was prepared by suspension of a colony from an agar plate that was prepared the previous day. Compound dilutions and inoculum were prepared in sterile, cation adjusted Mueller-Hinton Broth (Beckton Dickinson).
(§2) Bacteria were suspended in sterile saline and added to each assay plate to obtain a final concentration of 5×10^5 CFU/mL. An inoculum volume of 100 μL was added to wells containing 100 μL of broth with 2-fold serial dilutions of the test compound. All inoculated microdilution trays were incubated in ambient air at 35° C. for 18-24 hours. Following incubation, the lowest concentration of the compound that prevented visible growth (OD 600 nm<0.05) is recorded was the MIC. […] Performance of the assay was monitored by the use of laboratory quality-control strains and a standard compound with a defined MIC spectrum (neomycin), in accordance with CLSI guidelines.
(§3) Several compounds of the disclosure (Compound 1, 2, and 3) were further evaluated against several hundred bacterial isolates (isolated in the United States and Europe, 1:1) selected from the SENTRY Antimicrobial Surveillance Program (JMI Laboratories, North Liberty, Iowa). The set of clinical isolates included 300 randomly selected Enterobacterales, 103 randomly selected P. aeruginosa, 100 randomly selected A. baumannii-calcoaceticus, 20 randomly selected Methicillin-sensitive S. aureus (MSSA), and 30 randomly selected Methicillin-resistant S. aureus (MRSA). In addition, 101 Enterobacterales and 50 P. aeruginosa isolates with genetically defined mechanisms of aminoglycoside resistance were included. The MIC values at which ≥50% (MIC50) and ≥90% (MIC90) of isolates within a given set are inhibited were determined for each compound against each set of organisms.

Enterobacterales = assay: as above
Procedure: as §1, §2, §3

[2] = tested on: Methicillin-sensitive S. aureus (MSSA); assay: as above; details: Staphylococcus aureus, MSSA, 20 isolates
Procedure: as §1, §2, §3

[3] = tested on: Methicillin-resistant S. aureus (MRSA); assay: as above; details: Staphylococcus aureus, MRSA, 30 isolates
Procedure: as §1, §2, §3

[4] = tested on: A. baumannii-calcoaceticus; assay: as above; details: 100 isolates
Procedure: as §1, §2, §3

[5] = tested on: AG-resistant Enterobacterales; assay: as above
Procedure: as §1, §2, §3

P. aeruginosa [6] = assay: MIC broth microdilution (CLSI); details: Pseudomonas aeruginosa
Outline: (§4)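 First, a colony from the previous day's agar plate is suspended in saline to 0.5 McFarland. Next, this is added to cation-adjusted Mueller-Hinton broth containing 2-fold serial compound dilutions, giving 5×10^5 CFU/mL. Trays then incubate 18-24 hours at 35° C.; MIC is the lowest concentration without visible growth (OD 600 nm<0.05).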

S. aureus = assay: MIC broth microdilution (CLSI); details: for MIC: Staphylococcus aureus
Outline: as §4

A. baumannii = assay: MIC broth microdilution (CLSI); details: Acinetobacter baumannii
Outline: as §4

K. pneumoniae = assay: MIC broth microdilution (CLSI)
Outline: as §4

C. freundii = assay: MIC broth microdilution (CLSI); details: Citrobacter freundii, read-out: Activity (MIC)
Outline: as §4

E. coli = assay: MIC broth microdilution (CLSI); details: Escherichia coli
Outline: as §4

P. mirabilis = assay: MIC broth microdilution (CLSI); details: Proteus mirabilis; strain APMI1048, MDR Clinical isolate (CDC CRE panel), CDC AR Bank 0159
Outline: as §4

K. aerogenes = assay: MIC broth microdilution (CLSI); details: Klebsiella aerogenes; strain AEAE1042, MDR Clinical isolate (CDC CRE panel), CDC AR Bank 0161
Outline: as §4

S. enterica = assay: MIC broth microdilution (CLSI); details: Salmonella enterica, read-out: Activity (MIC)
Outline: as §4

E. cloacae = assay: MIC broth microdilution (CLSI); details: Enterobacter cloacae; strain AECL1089, MDR Clinical isolate (CDC CRE panel), CDC AR Bank 0154
Outline: as §4

C[C@H](N)[C@@H]1CC[C@@H](N)[C@@H](O[C@@H]2[C@@H](N)[C@H](O)[C@@H](NC(=O)[C@@H](O)[C@H](F)CN)[C@H](O)[C@H]2O[C@@H]2O[C@H](CO)[C@@H](O[C@H]3O[C@@H](CN)[C@@H](O)[C@H](O)[C@H]3N)[C@H]2O)O1 [Compound 3, (2R,3R)-4-amino-N-((1R,2S,3S,4R,5R,6S)-3-amino-4-(((2R,3R,6S)-3-amino-6-((S)-1-aminoethyl)tetrahydro-2H-pyran-2-yl)oxy)-5-(((2S,3R,4S,5R)-4-(((2R,3R,4R,5S,6S)-3-amino-6-(aminomethyl)-4,5-dihydroxytetrahydro-2H-pyran-2-yl)oxy)-3-hydroxy-5-(hydroxymethyl)tetrahydrofuran-2-yl)oxy)-2,6-dihydroxycyclohexyl)-3-fluoro-2-hydroxybutanamide]
MIC50 (P. aeruginosa [1]; read-out: MIC50): < 16 µg/mL | MIC90 (P. aeruginosa [1]; read-out: MIC90): < 16 µg/mL | MIC50 (Enterobacterales): < 16 µg/mL | MIC90 (Enterobacterales): < 16 µg/mL | MIC50 ([2]; read-out: MIC50): < 16 µg/mL | MIC90 ([2]; read-out: MIC90): < 16 µg/mL | MIC50 ([3]; read-out: MIC50): < 16 µg/mL | MIC90 ([3]; read-out: MIC90): < 16 µg/mL | MIC50 ([4]; read-out: MIC50): < 16 µg/mL | MIC90 ([4]; read-out: MIC90): < 16 µg/mL | MIC50 [5]: < 16 µg/mL | MIC90 [5]: < 16 µg/mL | MIC (P. aeruginosa [6]; read-out: Activity (MIC), strain NPAE0006, Efflux KO, Aph(3')-IIb): < 16 µg/mL | MIC (P. aeruginosa [6]; read-out: Activity (MIC), strain NPAE0010, MexXY over-expressed, Aph(3')-IIb): < 16 µg/mL | MIC (P. aeruginosa [6]; read-out: Activity (MIC), strain NPAE1288, MDR Clinical isolate): < 16 µg/mL | MIC (P. aeruginosa [6]; read-out: Activity (MIC), strain NPAE1293, MDR Clinical isolate): < 16 µg/mL | MIC (P. aeruginosa [6]; read-out: Activity (MIC), strain NPAE1299, MDR Clinical isolate): < 16 µg/mL | MIC (P. aeruginosa [6]; read-out: Activity (MIC), strain NPAE1302, MDR Clinical isolate): < 16 µg/mL | MIC (P. aeruginosa [6]; read-out: Activity (MIC), strain NPAE1303, MDR Clinical isolate): < 16 µg/mL | MIC (P. aeruginosa [6]; read-out: Activity (MIC), strain NPAE1308, MDR Clinical isolate): < 16 µg/mL | MIC (P. aeruginosa [6]; read-out: Activity (MIC), strain NPAE1310, MDR Clinical isolate): < 16 µg/mL | MIC (P. aeruginosa [6]; read-out: Activity (MIC), strain NPAE1313, MDR Clinical isolate): > 16 µg/mL | MIC (P. aeruginosa [6]; read-out: Activity (MIC), strain NPAE1316, MDR Clinical isolate): < 16 µg/mL | MIC (P. aeruginosa [6]; read-out: Activity (MIC), strain NPAE1323, MDR Clinical isolate): < 16 µg/mL | MIC (P. aeruginosa [6]; strain NPAE0001, WT Aph(3')-IIb, QC, read-out: Activity (MIC)): < 16 µg/mL | MIC (P. aeruginosa [6]; strain NPAE0002, WT Aph(3')-IIb, read-out: Activity (MIC)): < 16 µg/mL | MIC (P. aeruginosa [6]; strain NPAE0359, aph(3')-IIb KO (tetR), read-out: Activity (MIC)): < 16 µg/mL | MIC (S. aureus; ATCC29213, strain NSAU001, wild-type, QC, ATCC 29213): < 16 µg/mL | MIC (S. aureus; strain NSAU1004, MDR Clinical isolate): < 16 µg/mL | Activity (MIC) (S. aureus; strain NSAU1015, MDR Clinical isolate): + (MIC threshold for positive activity (+) is ≤16 μg/mL) | Activity (MIC) (S. aureus; strain NSAU1023, MDR Clinical isolate): + (MIC threshold for positive activity (+) is ≤16 μg/mL) | Activity (MIC) (S. aureus; strain NSAU1063, MDR Clinical isolate): + (MIC threshold for positive activity (+) is ≤16 μg/mL) | MIC (A. baumannii; read-out: Activity (MIC), strain NABA0007, ΔadeJK efflux): < 16 µg/mL | MIC (A. baumannii; read-out: Activity (MIC), strain NABA1427, MDR Clinical isolate): < 16 µg/mL | MIC (A. baumannii; read-out: Activity (MIC), strain NABA1433, MDR Clinical isolate): < 16 µg/mL | MIC (A. baumannii; read-out: Activity (MIC), strain NABA1434, MDR Clinical isolate): < 16 µg/mL | MIC (A. baumannii; read-out: Activity (MIC), strain NABA1436, MDR Clinical isolate): < 16 µg/mL | MIC (A. baumannii; read-out: Activity (MIC), strain NABA1437, MDR Clinical isolate): < 16 µg/mL | MIC (A. baumannii; read-out: Activity (MIC), strain NABA1438, MDR Clinical isolate): < 16 µg/mL | MIC (A. baumannii; read-out: Activity (MIC), strain NABA1439, MDR Clinical isolate): < 16 µg/mL | MIC (A. baumannii; read-out: Activity (MIC), strain NABA1448, MDR Clinical isolate): < 16 µg/mL | MIC (A. baumannii; read-out: Activity (MIC), strain NABA1449, MDR Clinical isolate): < 16 µg/mL | MIC (A. baumannii; read-out: Activity (MIC), strain NABA1450, MDR Clinical isolate): < 16 µg/mL | MIC (A. baumannii; strain NABA0006, WT parent, read-out: Activity (MIC)): < 16 µg/mL | MIC (A. baumannii; strain NABA0020, AME negative strain, read-out: Activity (MIC)): < 16 µg/mL | MIC (K. pneumoniae; Klebsiella pneumoniae, strain AKPN1246, MDR Clinical isolate (CDC CRE panel), CDC AR Bank 0139): < 16 µg/mL | Activity (MIC) (K. pneumoniae; strain AKPN1250, MDR Clinical isolate (CDC CRE panel), CDC AR Bank 0143): + (MIC threshold for positive activity (+) is ≤16 μg/mL) | Activity (MIC) (K. pneumoniae; strain AKPN1253, MDR Clinical isolate (CDC CRE panel), CDC AR Bank 0148): + (MIC threshold for positive activity (+) is ≤16 μg/mL) | Activity (MIC) (K. pneumoniae; strain AKPN1255, MDR Clinical isolate (CDC CRE panel), CDC AR Bank 0153): + (MIC threshold for positive activity (+) is ≤16 μg/mL) | MIC (C. freundii): < 16 µg/mL | MIC (E. coli; read-out: Activity (MIC), strain AECO1225, MDR Clinical isolate (CDC CRE panel), CDC AR Bank 0118): < 16 µg/mL | MIC (E. coli; read-out: Activity (MIC), strain AECO1226, MDR Clinical isolate (CDC CRE panel), CDC AR Bank 0119): < 16 µg/mL | MIC (E. coli; read-out: Activity (MIC), strain AECO1227, MDR Clinical isolate (CDC CRE panel), CDC AR Bank 0128): < 16 µg/mL | MIC (E. coli; read-out: Activity (MIC), strain NECO0003, ΔtolC): < 16 µg/mL | MIC (E. coli; read-out: Activity (MIC), strain NECO0245, ArmA): < 16 µg/mL | MIC (E. coli; strain NECO0001, WT QC, read-out: Activity (MIC)): < 16 µg/mL | MIC (E. coli; strain NECO0002, WT, read-out: Activity (MIC)): < 16 µg/mL | MIC (E. coli; strain NECO0243, empty vector, read-out: Activity (MIC)): < 16 µg/mL | MIC (E. coli; strain NECO0244, AAC(6')-Ib, read-out: Activity (MIC)): < 16 µg/mL | MIC (E. coli; strain NECO0289, APH(3')-Ia, read-out: Activity (MIC)): < 16 µg/mL | MIC (E. coli; strain NECO0302, AAC(3)-IIa, read-out: Activity (MIC)): < 16 µg/mL | MIC (E. coli; strain NECO0350, AAC(2')-I, read-out: Activity (MIC)): < 16 µg/mL | MIC (E. coli; strain NECO0359, ANT(4')-Ia, read-out: Activity (MIC)): < 16 µg/mL | MIC (P. mirabilis): < 16 µg/mL | MIC (K. aerogenes): < 16 µg/mL | MIC (S. enterica): < 16 µg/mL | MIC (E. cloacae): < 16 µg/mL

From patent publication US20250032524A1, “BROAD SPECTRUM AMINOGLYCOSIDES AND USES THEREOF” (REVAGENIX, INC., priority 2022, published 2025)
